Like-named read-outs stand apart in the source and are kept apart here.
Tests used:
Type in all cases: cell-based
[1] = test system: DENV2 replicon; assay: DENV-2 Huh-7 Rep EC50 (replicon luminescence); conditions: Dengue virus, DENV2, Huh-7, 48 h, read-out: DENV-2 REP Huh7 EC50
Protocol: In 384 well plates (Greiner, Cat #781091), compounds were acoustically transferred at 200 nl per well in a 8 compound (4 replicates) or 40 compound dose response format (3 replicates). For all plates tested, Balapiravir, GS-5734 and NITD008 were included as positive inhibition controls alongside 0% inhibition, DMSO-only negative control wells. Following compound addition, Huh-7 cells containing the DENV2 replicon construct were harvested following standard cell culture procedures and were adjusted to a concentration of 1.25E5 cells/mL in cell culture media composed of cDMEM without genticin. 40 μL of the cell stock was then added to each well for a final cell density of 5,000 cells/well. Cell and compound mixtures were incubated at 37° C./5% CO2 for 48 hours. Prior to harvesting cells, EnduRen Live Cell Substrate (Promega, Cat #E6481) was prepared by suspending 3.4 mg into 100 uL of DMSO to generate a 60 mM stock solution. The stock solution was then diluted 1:200 in pre-warmed cDMEM and 10 uL of this diluted solution was added to each well of the 384 well plates. Plates were then centrifuged at 500 rpm briefly and were placed on a plate shaker for 2 min. Following mixing, plates were incubated at […] for 1.5 hours prior to measuring luminescence on an Envision luminometer.

[2] = test system: RSV A2; assay: RSV NHBE EC50 (RSV A2 antiviral assay in NHBE cells); conditions: read-out: RSV NHBE EC50
Protocol: Normal human bronchial epithelial (NHBE) cells were purchased from Lonza (Walkersville, MD, Cat #CC-2540) and cultured in Bronchial Epithelial Growth Media (BEGM) (Lonza, Walkersville, MD, Cat #CC-3170). The cells were passaged 1-2 times per week to maintain <80% confluency. The NHBE cells were discarded after 6 passages in culture.
To conduct the RSV A2 antiviral assay, NHBE cells were plated in 96-well plates at a density of 7,500 cells per well in BEGM and allowed to attach overnight at 37° C. Following attachment, 100 μL of cell culture media was removed and 3-fold serially diluted compound was added using a Hewlett-Packard D300 Digital Dispenser. The final concentration of DMSO was normalized to 0.05%. Following compound addition, the NHBE cells were infected by the addition of 100 μL of RSV A2 at a titer of 1×10^4.5 tissue culture infectious doses/mL in BEGM and then incubated at 37° C. for 4 days. The NHBE cells were then allowed to equilibrate to 25° C. and cell viability was determined by removing 100 μL of culture medium and adding 100 μL of Cell-Titer Glo viability reagent. The mixtures were incubated for 10 minutes at 25° C., and the luminescence signal was quantified on an Envision luminescence plate reader.

[3] = test system: RSV strain A2; assay: microbe, parasite or virus in culture; conditions: read-out: RSV HEp-2 EC50
Protocol: Antiviral activity against RSV is determined using an infectious cytopathic cell protection assay in HEp-2 cells. In this assay, compounds inhibiting viral infection and/or replication produce a cytoprotective effect against the virus-induced cell killing that can be quantified using a cell viability reagent. The techniques used here are novel adaptations of methods described in published literature (Chapman et al., Antimicrob Agents Chemother. 2007, 51(9):3346-53.).
HEp-2 cells are obtained from ATCC (Manassas, VI) and maintained in MEM media supplemented with 10% fetal bovine serum and penicillin/streptomycin. Cells are passaged twice a week and kept at subconfluent stage. Commercial stock of RSV strain A2 (Advanced Biotechnologies, Columbia, MD) is titered before compound testing to determine the appropriate dilution of the virus stock that generates desirable cytopathic effect in HEp-2 cells.
For antiviral tests, HEp-2 cells are grown in large cell culture flasks to near confluency but not fully so. The compounds to be tested are prediluted in DMSO in 384-well compound dilution plates, either in an 8 or 40 sample per plate standardized dose response format. 3-fold serial dilution increments of each test compound are prepared in the plates and test samples are transferred via acoustic transfer apparatus (Echo, Labcyte) at 100 nL per well into cell culture assay 384-well plates. Each compound dilution is transferred in single or quadruplicate samples into dry assay plates, which are stored until assay is ready to go. The positive and negative controls are laid out in opposite on ends of the plate in vertical blocks (1 column).
Subsequently, an infectious mixture is prepared using an appropriate dilution of virus stock previously determined by titration with cells at a density of 50,000/mL and 20 µL/well is added to test plates w/compounds via automation (uFlow, Biotek). Each plate includes negative and positive controls (16 replicates each) to create 0% and 100% virus inhibition standards, respectively. Following the infection with RSV, testing plates are incubated for 4 days in a 37° C. cell culture incubator. After the incubation, a cell viability reagent, Cell TiterGlo (Promega, Madison, WI) is added to the assay plates, which are incubated briefly, and a luminescent readout is measured (Envision, Perkin Elmer) in all the assay plates. The RSV-induced cytopathic effect, percentage inhibition, is determined from the levels of remaining cell viability. […] Various potent anti-RSV tool compounds are used as positive controls for antiviral activity.

[4] = test system: HRV16; assay: HRV16 HeLa EC50 (cytopathic effect in H1-HeLa cells)
Protocol: H1-HeLa cells, cultured in complete DMEM medium containing 10% heat-inactivated FBS and 1% Penicillin/Streptomycin, were seeded in 96 well plates at 3000 cells/well one day prior to compound dosing and infection. The antiviral activity of each compound was measured in triplicate. Compounds were added directly to the cell cultures in serial 3-fold dilutions using the HP300 digital dispenser (Hewlett Packard, Palo Alto, CA) immediately prior to infection. The plates were transferred to BSL-2 containment and the appropriate dilution of virus stock, previously determined by titration and prepared in cell culture media, was added to test plates containing cells and serially diluted compounds. Each plate included 6 wells of infected untreated cells and 6 wells of uninfected cells that served as 0% and 100% virus inhibition control, respectively. Following the infection, test plates were incubated for 96 h in a tissue culture incubator set to 33° C./5% CO2. Following incubation, the H1-HeLa cells were removed from incubation and allowed to equilibrate to 25° C. Cell viability was determined by removing 100 μL of culture medium and adding 100 μL of Cell-Titer Glo viability reagent. The mixtures were incubated on a shaker for 10 minutes at 25° C., and the luminescence signal was quantified on an Envision luminescence plate reader.

[5] = human respiratory syncytial virus, NHBE, 96 h, Table 3, NHBE cells, RSV A2, 4 days
[6] = human respiratory syncytial virus, HEp-2, 96 h, Table 3, HEp-2 cells, RSV A2, 4 days
[7] = 96 h, Table 3, H1-HeLa cells, 96 h, read-out: HRV16 HeLa EC50
[8] = human respiratory syncytial virus, NHBE, Table 5 comparative activity, 2',3'-OH vs -OC(O)iPr
[9] = HeLa, Table 5 comparative activity, 2',3'-OH vs -OC(O)iPr, read-out: HRV16 HeLa EC50
[10] = human respiratory syncytial virus, HEp-2, Table 5 comparative activity, 2',3'-OH vs -OC(O)iPr
[11] = Table 3, NHBE cells, RSV A2, 4 days
[12] = Table 3, H1-HeLa cells, 96 h, read-out: HRV16 HeLa EC50
[13] = Table 3, HEp-2 cells, RSV A2, 4 days

CCC(=O)OC1[C@H](c2ccc3c(N)ncnn23)O[C@](C#N)(COP(=O)(N[C@@H](C)C(=O)OCC2CCC2)Oc2ccccc2)[C@H]1OC(=O)CC (stereo in doubt) [Example 91, (2R,3S,4R,5S)-5-(4-aminopyrrolo[2,1-f][1,2,4]triazin-7-yl)-2-cyano-2-((((((S)-1-(cyclobutylmethoxy)-1-oxopropan-2-yl)amino)(phenoxy)phosphoryl)oxy)methyl) tetrahydrofuran-3,4-diyl dipropionate]
EC50 [1]: 10200 nM | EC50 [2, 5]: 23 nM | EC50 [3, 6]: 67 nM

CC(C)C(=O)O[C@H]1[C@H](c2ccc3c(N)ncnn23)O[C@](C#N)(COP(=O)(N[C@@H](C)C(=O)O[C@H]2CCOC2)Oc2ccccc2)[C@H]1OC(=O)C(C)C (single isomer, unassigned) [Example 240]
EC50 [2, 5]: 24 nM | EC50 [4, 7]: 125 nM | EC50 [3, 6]: 20 nM

CC(C)C(=O)O[C@H]1[C@H](c2ccc3c(N)ncnn23)O[C@](C#N)(COP(=O)(N[C@@H](C)C(=O)OCCN(C(C)C)C(C)C)Oc2ccccc2)[C@H]1OC(=O)C(C)C (stereo partly drawn) [Example 224, (2R,3S,4S,5S)-5-(4-aminopyrrolo[2,1-f][1,2,4]triazin-7-yl)-2-cyano-2-((((((S)-1-(2-(diisopropylamino)ethoxy)-1-oxopropan-2-yl)amino)(phenoxy)phosphoryl)oxy)methyl)tetrahydrofuran-3,4-diyl bis(2-methylpropanoate)]
EC50 [2, 5]: 986 nM | EC50 [4, 7]: 1700 nM | EC50 [3, 6]: 378 nM

COCCC(=O)O[C@H]1[C@H](c2ccc3c(N)ncnn23)O[C@](C#N)(CO[P@@](=O)(N[C@@H](C)C(=O)OC)Oc2ccccc2)[C@H]1OC(=O)CCOC [Example 231, (2R,3S,4S,5S)-5-(4-aminopyrrolo[2,1-f][1,2,4]triazin-7-yl)-2-cyano-2-((((S)-(((S)-1-methoxy-1-oxopropan-2-yl)amino)(phenoxy)phosphoryl)oxy)methyl) tetrahydrofuran-3,4-diyl bis(3-methoxypropanoate)]
EC50 [2, 5]: 75 nM | EC50 [4, 7]: 1730 nM | EC50 [3, 6]: 124 nM

CC(C)C(=O)O[C@H]1[C@H](c2ccc3c(N)ncnn23)O[C@](C#N)(COP(=O)(N[C@@H](C)C(=O)O[C@H]2CCN(C)C2)Oc2ccccc2)[C@H]1OC(=O)C(C)C (stereo partly drawn) [Example 228, (2R,3S,4S,5S)-5-(4-aminopyrrolo[2,1-f][1,2,4]triazin-7-yl)-2-cyano-2-((((((S)-1-(((S)-1-methylpyrrolidin-3-yl)oxy)-1-oxopropan-2-yl)amino)(phenoxy)phosphoryl)oxy)methyl)tetrahydrofuran-3,4-diyl bis(2-methylpropanoate)]
EC50 [2, 5]: 59 nM | EC50 [2, 8]: 59 nM | EC50 [4, 7]: 956 nM | EC50 [4, 9]: 956 nM | EC50 [3, 6]: 84 nM | EC50 [3, 10]: 84 nM

C[C@H](NP(=O)(OC[C@@]1(C#N)O[C@@H](c2ccc3c(N)ncnn23)[C@H](O)[C@@H]1O)Oc1ccccc1)C(=O)OC1COC1 (stereo partly drawn) [Example 44, oxetan-3-yl ((((2R,3S,4R,5S)-5-(4-aminopyrrolo[2,1-f][1,2,4]triazin-7-yl)-2-cyano-3,4-dihydroxytetrahydrofuran-2-yl)methoxy)(phenoxy)phosphoryl)-L-alaninate]
EC50 [2, 8]: 1800 nM | EC50 [4, 9]: 4260 nM | EC50 [3, 10]: 997 nM

CC(C)C(=O)OC1C(c2ccc3c(N)ncnn23)OC(C#N)(COP(=O)(NC(C)C(=O)OC2CCN(C)C2)Oc2ccccc2)C1OC(=O)C(C)C (single isomer, unassigned) [Example 230]
EC50 [2, 11]: 47 nM | EC50 [4, 12]: 864 nM | EC50 [3, 13]: 102 nM

C[C@H](NP(=O)(OC[C@@]1(C#N)O[C@@H](c2ccc3c(N)ncnn23)[C@H](O)[C@@H]1O)Oc1ccccc1)C(=O)OC1CCN(C)CC1 (stereo partly drawn) [Example 19]
EC50 [2, 8]: > 5000 nM | EC50 ([4]; HeLa, read-out: HRV16 HeLa EC50, Table 5 comparative activity, 2',3'-OH vs -OC(O)iPr): ≥ 50000 nM | EC50 [3, 10]: 4180 nM

CC(C)C(=O)O[C@H]1[C@H](c2ccc3c(N)ncnn23)O[C@](C#N)(COP(=O)(N[C@@H](C)C(=O)OCCCN2CCOCC2)Oc2ccccc2)[C@H]1OC(=O)C(C)C (stereo partly drawn) [Example 237, (2R,3S,4S,5S)-5-(4-aminopyrrolo[2,1-f][1,2,4]triazin-7-yl)-2-cyano-2-((((((S)-1-(3-morpholinopropoxy)-1-oxopropan-2-yl)amino)(phenoxy)phosphoryl)oxy)methyl) tetrahydrofuran-3,4-diyl bis(2-methylpropanoate)]
EC50 [2, 5]: 43 nM | EC50 [4, 7]: 478 nM | EC50 [3, 6]: 106 nM

CC(C)C(=O)O[C@H]1[C@H](c2ccc3c(N)ncnn23)O[C@](C#N)(COP(=O)(N[C@@H](C)C(=O)OCC2CC2)Oc2ccccc2)[C@H]1OC(=O)C(C)C (stereo partly drawn) [Example 238, (2R,3S,4S,5S)-5-(4-aminopyrrolo[2,1-f][1,2,4]triazin-7-yl)-2-cyano-2-((((((S)-1-(cyclopropylmethoxy)-1-oxopropan-2-yl)amino)(phenoxy)phosphoryl)oxy)methyl) tetrahydrofuran-3,4-diyl bis(2-methylpropanoate)]
EC50 [2, 11]: 28 nM | EC50 [4, 12]: 99 nM | EC50 [3, 13]: 27 nM

Source: patent US12264173B2 (GILEAD SCIENCES, INC., priority 2020, dated 2025)
